# pEC50: −log10 of the molar value. Where two headings read alike, the source gives them in different places.
# Legend:
# [1] = test system: 3D spheroids of NSCLC H23 cells (KRAS-G12C); assay: Cell viability assay in 3D cell culture (spheroids), H23; format: cell-based; settings: Homo sapiens, NCI-H23, H23 3D spheroids, read-out: EC50 for trametinib
# Protocol: For the treatment, 50 μL of media was removed from each well and replaced with fresh media with compounds. […] If the treatment time exceeded 4 days, 70 μL of media in each well was replaced with fresh media containing the test compound every fourth day. Each treatment was performed in duplicate. […] Prior to analysis, the spheroids were photographed at 50× magnification.
# For the treatment, 50 μL of media was removed from each well and replaced with fresh media with compounds. […] If the treatment time exceeded 4 days, 70 μL of media in each well was replaced with fresh media containing the test compound every fourth day. Each treatment was performed in duplicate. […] Prior to analysis, the spheroids were photographed at 50× magnification
# [2] = test system: NSCLC H23 cells (KRAS-G12C); assay: Cell viability assay in 2D cell culture (CellTiter-Glo), H23; settings: for pEC50: Homo sapiens, NCI-H23, 96 h
# [3] = test system: NSCLC A549 cells (KRAS-G12S); assay: Cell viability assay in 2D cell culture (CellTiter-Glo), A549; settings: for pEC50: A549, 96 h
# [4] = test system: quiescent and proliferating pancreatic cancer cells; settings: reported by Ewton et al. 2011; cited from earlier work
# [5] = test system: colon cancer SW620 cells (G12V); assay: FACS analysis of cell cycle distribution (acridine orange), SW620; format: cell-based; settings: SW620, 5 μM Compound I-7 and 20 nM trametinib, 24 hours
# Protocol: SW620 cells were cultured, treated, and analyzed as described in Example 1. The results when different concentrations of trametinib, Compound I-7, or both trametinib and Compound I-7 are present are shown in FIG. 10.
# [6] = test system: H2122 NSCLC cells (KRAS G12C); assay: FACS analysis of cell cycle distribution (acridine orange), H2122; format: cell-based
# [7] = test system: DYRK1B, MAPK, p27 in SW620 cells; assay: Western blot analysis of protein expression in SW620 cells; format: cell-based; settings: SW620, 20 nM trametinib and 5 μM compound I-7, vs trametinib alone
# Protocol: For Western Blot analysis cells were seeded into 6-well plates at 5×10^5-9×10^5 cells/well (depending on the cell size and rate of proliferation), allowed to attach for 24 hours, then treated with compounds for 24 hours, and harvested. Immunoblotting was performed using conventional techniques, as described in Cell Signaling Technologies Western Blotting protocol (www.cellsignal.com).
# Antibodies used for blotting were from Cell Signaling Technology (CST): DYRK1B (D40D1) Rabbit mAb #5672; β-Actin (13E5) Rabbit mAb #4970; Anti-rabbit IgG, HIRP-linked Antibody #7074. The Primary Antibody Dilution Buffer 1×TBST with 5% BSA (CST #9998) was used. For detection, SignalFire™ ECL Reagent (CST #6883) was used.
# The expression levels of DYRK1B, ph-t202 MAPK, total MAPK, ph-S10 p27, total p27 and β-actin in SW620 cells following the 24 hours treatment with trametinib or combination of trametinib and compound I-7 as observed by Western blot analysis are shown in FIG. 13. The expression of DYRK1B protein was compared to that in untreated cells incubated in regular growth medium containing FBS (FBS+) or serum free medium (FBS−), single treatment with trametinib to the treatment with combination of trametinib and compound I-7.
# [8] = test system: NSCLC H2122 cells (KRAS-G12C); assay: Cell viability assay in 2D cell culture (CellTiter-Glo), H2122
# [9] = test system: ovarian cancer OVCAR cells (wild KRAS); assay: Cell viability assay in 2D cell culture (CellTiter-Glo), OVCAR; format: cell-based; settings: for pEC50: 96 h
# [10] = test system: NSCLC H1975 cells (wild-type KRAS); assay: Cell viability assay in 2D cell culture (CellTiter-Glo), H1975; format: cell-based; settings: for pEC50: Homo sapiens, NCI-H1975, 96 h, H1975, 96 h
# [11] = test system: NSCLC H358 cells (KRAS-G12C); assay: Cell viability assay in 2D cell culture (CellTiter-Glo), H358
# [12] = H2122, 5 μM Compound I-7 and 100 nM AMG-510, FBS+
# [13] = H2122, 5 μM Compound I-7 and 100 nM MRTX 849, 48 hours
compound,measurement,setting,value
CC(=O)Nc1cccc(-n2c(=O)n(C3CC3)c(=O)c3c(Nc4ccc(I)cc4F)n(C)c(=O)c(C)c32)c1 [trametinib],pEC50,[1]; Compound I-7 not present,8.77
same,pEC50,[1]; Compound I-7 present at 5 μM,8.92
same,pEC50,[1]; Compound I-7 present at 10 μM,> 11.00
same,pEC50,"[2]; read-out: EC50 for trametinib, H23 2D, 96 h, Compound I-7 not present",7.72
same,pEC50,"[2]; read-out: EC50 for trametinib, H23 2D, 96 h, Compound I-7 present at 0.12 μM",7.81
same,pEC50,"[2]; read-out: EC50 for trametinib, H23 2D, 96 h, Compound I-7 present at 3.3 μM",7.93
same,pEC50,"[3]; read-out: EC50 for trametinib, Compound I-7 not present",7.79
same,pEC50,"[3]; read-out: EC50 for trametinib, Compound I-7 present at 2.2 μM",7.80
same,pEC50,"[3]; read-out: EC50 for trametinib, Compound I-7 present at 6.73 μM",8.49
COc1ncc2cc(C(=O)Nc3cc(C(=O)NCc4cccc(Cl)c4)ccc3Cl)c(=O)[nH]c2n1 [TC-S 7004],effectiveness against quiescent and proliferating cancer cells in vitro,[4],effective against both quiescent and proliferating cancer cells
CCOC(=N)c1nc2ccc3ncnc(Nc4cc(F)c(F)cc4Cl)c3c2s1 [Compound I-7],apoptotic cells (sub-G0 population),[5],significant increases in apoptotic cells
same,fraction of cells in G0,[5]; vs trametinib alone,reduced the fraction of cells in G0
same,apoptotic cells (sub-G0 fraction),[6]; [12],large increase in apoptotic cells
same,proportion of quiescent cells,[6]; [12],no such increase in proportion of quiescent cells was observed
same,apoptotic cells (sub-G0 population),[6]; [13],significant increases in apoptotic cells
same,fraction of cells in G0,[6]; [13],reduced the fraction of cells in G0
same,phosphorylation of p27 (Western blot),[7],decrease of the phosphorylation of p27
same,total levels of p27 (Western blot),[7],decrease
same,effect of combination on cytotoxicity,"[2]; H23, combined with trametinib",synergistic
same,effect of combination on cytotoxicity of selumetinib,"[3]; A549, combined with selumetinib",significant increase in cytotoxicity
same,effect of combination on cytotoxicity,"[3]; A549, combined with trametinib",synergistic
same,effect of combination on cytotoxicity,"[8]; H2122, combined with AMG-510",synergistic
same,effect of combination on cytotoxicity,"[8]; H2122, combined with MRTX-849",synergistic
c1cncc(-c2ccnc3ccc(-c4c[nH]c5ncccc45)cc23)c1 [Compound II-1],effect of combination on cytotoxicity,[9]; combined with selumetinib,synergistic effect
same,effect of combination on cytotoxicity,"[10]; H1975, combined with selumetinib",synergistic effect
same,effect of combination on cytotoxicity,"[11]; H358, combined with AMG-510",synergistic
same,effect of combination on cytotoxicity,"[11]; H358, combined with MRTX-849",synergistic
Cn1cnc2c(F)c(Nc3ccc(Br)cc3Cl)c(C(=O)NOCCO)cc21 [selumetinib],pEC50,"[9]; Compound I-7 not present, highest selumetinib concentration 50 μM",3.62
same,pEC50,"[9]; Compound I-7 present at 1 μM, read-out: EC50 for selumetinib",3.76
same,pEC50,"[9]; Compound I-7 present, read-out: EC50 for selumetinib",> 7.00
same,pEC50,"[10]; Compound II-1 not present, highest selumetinib concentration 20 μM",4.23
same,pEC50,"[10]; Compound II-1 present at 1 μM, read-out: EC50 for selumetinib",6.89
same,pEC50,"[3]; read-out: EC50 for selumetinib, Compound I-7 not present",5.63
same,pEC50,"[3]; read-out: EC50 for selumetinib, Compound I-7 present at 3 μM",6.04
same,pEC50,"[3]; read-out: EC50 for selumetinib, Compound I-7 present at 6 μM",8.00

# Source: patent publication US20230226061A1, “COMBINATION CANCER THERAPY WITH DYRK1 INHIBITORS AND INHIBITORS OF THE RAS-RAF-MEK-ERK (MAPK) PATHWAY” (Felicitex Therapuetics, Inc., priority 2022, published 2023)
